Assay [1] has as its system arachidonic acid-induced pulmonary embolism. In words: Inhibiting effect on arachidonic acid-induced pulmonary embolism (in vivo). Details: species or system ddy-male mice. To be noted: Mus musculus; dose required to shorten the recovery time by at least 15% as compared with the control group; oral, 3 hours before arachidonic acid 125 mg/kg, mice. How it is done:
Inhibiting effect on arachidonic acid-induced pulmonary embolism (in vivo):
A test compound in an aqueous carboxymethylcellulose solution (20 ml/kg) was orally administered to ddy-male mice fasted overnight. Three hours later, arachidonic acid (125 mg/kg) was injected to the tail vein of mice to induce pulmonary embolism, and the recovery time (minute) of locomotive activity of the mice was compared with that of a control group of mice to which a 0.25% aqueous CMC solution was administered instead of the test compound solution. The inhibiting effect of each test compound on arachidonic acid-induced pulmonary embolism was estimated in terms of the dose required to shorten the recovery time by at least 15% as compared with the control group.

The test system of assay [2] is TxA2. To be noted: Thrombosis Research, 35, 379-395, 1984; cited from earlier work.

The structures appear in SMILES notation.

Consider `O=C(O)COc1ccc(CCNS(=O)(=O)c2ccccc2)cc1` [Control, 4-(2-Benzensulfonylaminoethyl)phenoxyacetic acid], for which the ED15 in assay [1] came out at 30 mg/kg. The TxA2-antagonistic activity entry in assay [2] is reported as “has TxA2 -antagonistic activity”.
For the molecule `O=C(O)CCNC(=O)Cc1ccc2c(c1)CC(NS(=O)(=O)c1ccc(Cl)cc1)C2` (stereo not shown) [Example 1], the ED15 in assay [1] was 0.03 mg/kg.
In the case of `O=C(O)CCCNC(=O)Cc1ccc2c(c1)CC(NS(=O)(=O)c1ccc(Cl)cc1)C2` (stereo not shown) [Example 2], the ED15 in assay [1] was 0.03 mg/kg.

(Values after patent publication US5190975A, “Indan derivatives used for treating thromboses or asthma” (Tanabe Seiyaku Co., Ltd., priority 1987, dated 1993).)
